Results published in PubChem BioAssay AID1963870 (Molecular Pharmacology Branch, DTP, NCI, 2024).

Tested on: 292921-168-R-J2-PDC KRAS tumor spheroid viability
Assay: Anticancer human tumor 292921-168-R-J2-PDC patient-derived pancreatic carcinoma cell line growth inhibition [KRAS2]
Conditions: spheroids with HUVEC and MSC; for IC50: curve of first compound; for viability, T/C: stronger effect = lower value
In short: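 KRAS-mutant tumor cells were grown as spheroids with HUVEC endothelial cells and human MSCs as stroma. Targeted agents were tested alone and with KRAS pathway inhibitors. Doses started at or near clinical Cmax, or 10 microM, descending half-log.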

[1] = second compound 0.1 µM, first compound 0.0316 µM
[2] = second compound 0.1 µM, first compound 0.1 µM
[3] = second compound 0.1 µM, first compound 0.316 µM
[4] = second compound 0.1 µM, first compound 1 µM
[5] = second compound 0.1 µM, first compound 3.16 µM
[6] = second compound 0.1 µM, first compound 10 µM
[7] = second compound 0.316 µM, first compound 0.0316 µM
[8] = second compound 0.316 µM, first compound 0.1 µM
[9] = second compound 0.316 µM, first compound 0.316 µM
[10] = second compound 0.316 µM, first compound 1 µM
[11] = second compound 0.316 µM, first compound 3.16 µM
[12] = second compound 0.316 µM, first compound 10 µM
[13] = second compound 1 µM, first compound 0.0316 µM
[14] = second compound 1 µM, first compound 0.1 µM
[15] = second compound 1 µM, first compound 0.316 µM
[16] = second compound 1 µM, first compound 1 µM
[17] = second compound 1 µM, first compound 3.16 µM
[18] = second compound 1 µM, first compound 10 µM
[19] = second compound 3.16 µM, first compound 0.0316 µM
[20] = second compound 3.16 µM, first compound 0.1 µM
[21] = second compound 3.16 µM, first compound 0.316 µM
[22] = second compound 3.16 µM, first compound 1 µM
[23] = second compound 3.16 µM, first compound 3.16 µM
[24] = second compound 3.16 µM, first compound 10 µM
[25] = second compound 0.0316 µM, first compound 0.01 µM
[26] = second compound 0.0316 µM, first compound 0.0316 µM
[27] = second compound 0.0316 µM, first compound 0.1 µM
[28] = second compound 0.0316 µM, first compound 0.316 µM
[29] = second compound 0.0316 µM, first compound 1 µM
[30] = second compound 0.0316 µM, first compound 3.16 µM
[31] = second compound 0.1 µM, first compound 0.01 µM
[32] = second compound 0.316 µM, first compound 0.01 µM
[33] = second compound 1 µM, first compound 0.01 µM
[34] = second compound 3.16 µM, first compound 0.01 µM
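Also: drug exposure lasted seven days after spheroids formed for three days.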
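For viability, T/C in this document: percent of DMSO vehicle control viability which is 100%.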

Question: CC1OCC2(CCN(c3cnc(Sc4ccnc(N)c4Cl)c(N)n3)CC2)C1N (stereo not given) + C=CC(=O)N1CCN(c2nc(=O)n(-c3c(C)ccnc3C(C)C)c3nc(-c4c(O)cccc4F)c(F)cc23)C(C)C1 was tested. Which IC50 (second compound 0.1 µM) did it give?
Answer: 1140 nM

Question: And the IC50 (second compound 0.316 µM)?
Answer: 1920 nM

Question: What about the IC50 (second compound 1 µM) of the same compound?
Answer: 2060 nM

Question: What about the IC50 (second compound 3.16 µM) of the same compound?
Answer: 218 nM

Question: What about the IC50 (second compound 10 µM) of the same compound?
Answer: < 31.6 nM

Question: And the viability, T/C [1]?
Answer: 96.8%

Question: What about the viability, T/C [2] of the same compound?
Answer: 83.1%

Question: And the viability, T/C [3]?
Answer: 64.5%

Question: What about the viability, T/C [4] of the same compound?
Answer: 51%

Question: And the viability, T/C [5]?
Answer: 42%

Question: And the viability, T/C [6]?
Answer: 33.4%

Question: And the viability, T/C [7]?
Answer: 108%

Question: And the viability, T/C [8]?
Answer: 82.5%

Question: What about the viability, T/C [9] of the same compound?
Answer: 69.2%

Question: What about the viability, T/C [10] of the same compound?
Answer: 59.9%

Question: And the viability, T/C [11]?
Answer: 45.6%

Question: And the viability, T/C [12]?
Answer: 34.2%

Question: What about the viability, T/C [13] of the same compound?
Answer: 104%

Question: And the viability, T/C [14]?
Answer: 89.9%

Question: What about the viability, T/C [15] of the same compound?
Answer: 73.5%

Question: And the viability, T/C [16]?
Answer: 55.5%

Question: What about the viability, T/C [17] of the same compound?
Answer: 46.6%

Question: And the viability, T/C [18]?
Answer: 41.1%

Question: And the viability, T/C [19]?
Answer: 65.2%

Question: What about the viability, T/C [20] of the same compound?
Answer: 57.6%

Question: What about the viability, T/C [21] of the same compound?
Answer: 45.9%

Question: And the viability, T/C [22]?
Answer: 39%

Question: And the viability, T/C [23]?
Answer: 36.7%

Question: And the viability, T/C [24]?
Answer: 29.6%

Question: What about the viability, T/C (second compound 10 µM, first compound 0.0316 µM) of the same compound?
Answer: 17.8%

Question: What about the viability, T/C (second compound 10 µM, first compound 0.1 µM) of the same compound?
Answer: 15.9%

Question: What about the viability, T/C (second compound 10 µM, first compound 0.316 µM) of the same compound?
Answer: 16.3%

Question: What about the viability, T/C (second compound 10 µM, first compound 1 µM) of the same compound?
Answer: 15.5%

Question: What about the viability, T/C (second compound 10 µM, first compound 3.16 µM) of the same compound?
Answer: 15.1%

Question: What about the viability, T/C (second compound 10 µM, first compound 10 µM) of the same compound?
Answer: 14.4%

Question: CC(=O)OC12COC1CC(O)C1(C)C(=O)C(O)C3=C(C)C(OC(=O)C(O)C(NC(=O)OC(C)(C)C)c4ccccc4)CC(O)(C(OC(=O)c4ccccc4)C21)C3(C)C (stereo not given) + C=CC(=O)N1CCN(c2nc(OCC3CCCN3C)nc3c2CCN(c2cccc4cccc(C)c24)C3)CC1CC#N was tested. Which IC50 (second compound 0.0316 µM) did it give?
Answer: < 10 nM

Question: And the IC50 (second compound 0.1 µM)?
Answer: < 10 nM

Question: And the IC50 (second compound 0.316 µM)?
Answer: < 10 nM

Question: And the IC50 (second compound 1 µM)?
Answer: < 10 nM

Question: What about the IC50 (second compound 3.16 µM) of the same compound?
Answer: < 10 nM

Question: What about the viability, T/C [25] of the same compound?
Answer: 12.8%

Question: What about the viability, T/C [26] of the same compound?
Answer: 14.4%

Question: What about the viability, T/C [27] of the same compound?
Answer: 10.5%

Question: And the viability, T/C [28]?
Answer: 11.3%

Question: And the viability, T/C [29]?
Answer: 13.3%

Question: What about the viability, T/C [30] of the same compound?
Answer: 17.1%

Question: What about the viability, T/C [31] of the same compound?
Answer: 13.8%

Question: What about the viability, T/C [1] of the same compound?
Answer: 12%

Question: What about the viability, T/C [2] of the same compound?
Answer: 9.84%

Question: What about the viability, T/C [3] of the same compound?
Answer: 9.08%

Question: And the viability, T/C [4]?
Answer: 12.5%

Question: And the viability, T/C [5]?
Answer: 14.9%

Question: And the viability, T/C [32]?
Answer: 11.8%

Question: What about the viability, T/C [7] of the same compound?
Answer: 9.96%

Question: And the viability, T/C [8]?
Answer: 8.56%

Question: And the viability, T/C [9]?
Answer: 9.75%

Question: What about the viability, T/C [10] of the same compound?
Answer: 15.3%

Question: And the viability, T/C [11]?
Answer: 14.3%

Question: What about the viability, T/C [33] of the same compound?
Answer: 8.08%

Question: What about the viability, T/C [13] of the same compound?
Answer: 6.89%

Question: What about the viability, T/C [14] of the same compound?
Answer: 6.48%

Question: And the viability, T/C [15]?
Answer: 7.06%

Question: What about the viability, T/C [16] of the same compound?
Answer: 6.74%

Question: What about the viability, T/C [17] of the same compound?
Answer: 7.91%

Question: What about the viability, T/C [34] of the same compound?
Answer: 15.1%

Question: What about the viability, T/C [19] of the same compound?
Answer: 13.7%

Question: What about the viability, T/C [20] of the same compound?
Answer: 11.1%

Question: And the viability, T/C [21]?
Answer: 11.6%

Question: What about the viability, T/C [22] of the same compound?
Answer: 14%

Question: What about the viability, T/C [23] of the same compound?
Answer: 18.2%

Question: What does the source list for CN(C)C/C=C/C(=O)Nc1cc2c(Nc3ccc(F)c(Cl)c3)ncnc2cc1O[C@H]1CCOC1 + C=CC(=O)N1CCN(c2nc(OCC3CCCN3C)nc3c2CCN(c2cccc4cccc(C)c24)C3)CC1CC#N?
Answer: IC50 (second compound 0.0316 µM): > 100 nM; IC50 (second compound 0.1 µM): > 100 nM; IC50 (second compound 0.316 µM): > 100 nM; IC50 (second compound 1 µM): 9.38 nM; IC50 (second compound 3.16 µM): < 0.316 nM; viability, T/C (second compound 0.0316 µM, first compound 0.000316 µM): 110%; viability, T/C (second compound 0.0316 µM, first compound 0.001 µM): 97.6%; viability, T/C (second compound 0.0316 µM, first compound 0.00316 µM): 89.9%; viability, T/C [25]: 85.3%; viability, T/C [26]: 76.9%; viability, T/C [27]: 71.9%; viability, T/C (second compound 0.1 µM, first compound 0.000316 µM): 99.2%; viability, T/C (second compound 0.1 µM, first compound 0.001 µM): 98.1%; viability, T/C (second compound 0.1 µM, first compound 0.00316 µM): 85.3%; viability, T/C [31]: 84.8%; viability, T/C [1]: 71.4%; viability, T/C [2]: 68.2%; viability, T/C (second compound 0.316 µM, first compound 0.000316 µM): 77.3%; viability, T/C (second compound 0.316 µM, first compound 0.001 µM): 85.3%; viability, T/C (second compound 0.316 µM, first compound 0.00316 µM): 64.7%; viability, T/C [32]: 60.5%; viability, T/C [7]: 61.6%; viability, T/C [8]: 49.3%; viability, T/C (second compound 1 µM, first compound 0.000316 µM): 56.8%; viability, T/C (second compound 1 µM, first compound 0.001 µM): 60%; viability, T/C (second compound 1 µM, first compound 0.00316 µM): 50.3%; viability, T/C [33]: 49.5%; viability, T/C [13]: 45.5%; viability, T/C [14]: 34.8%; viability, T/C (second compound 3.16 µM, first compound 0.000316 µM): 0.73%; viability, T/C (second compound 3.16 µM, first compound 0.001 µM): 1.26%; viability, T/C (second compound 3.16 µM, first compound 0.00316 µM): 0.25%; viability, T/C [34]: 0.27%; viability, T/C [19]: 0.43%; viability, T/C [20]: 0.2%

Question: For O=C(c1cc(Cc2n[nH]c(=O)c3ccccc23)ccc1F)N1CCN(C(=O)C2CC2)CC1 + C=CC(=O)N1CCN(c2nc(OCC3CCCN3C)nc3c2CCN(c2cccc4cccc(C)c24)C3)CC1CC#N, which IC50 (second compound 0.0316 µM) is on record?
Answer: 5670 nM

Question: And the IC50 (second compound 0.1 µM)?
Answer: 6110 nM

Question: What about the IC50 (second compound 0.316 µM) of the same compound?
Answer: 3560 nM

Question: What about the IC50 (second compound 1 µM) of the same compound?
Answer: < 31.6 nM

Question: And the IC50 (second compound 3.16 µM)?
Answer: < 31.6 nM

Question: And the viability, T/C [26]?
Answer: 102%

Question: What about the viability, T/C [27] of the same compound?
Answer: 101%

Question: And the viability, T/C [28]?
Answer: 102%

Question: What about the viability, T/C [29] of the same compound?
Answer: 85.1%

Question: And the viability, T/C [30]?
Answer: 62%

Question: What about the viability, T/C (second compound 0.0316 µM, first compound 10 µM) of the same compound?
Answer: 38.8%

Question: And the viability, T/C [1]?
Answer: 88.3%

Question: What about the viability, T/C [2] of the same compound?
Answer: 68.2%

Question: And the viability, T/C [3]?
Answer: 84.5%

Question: And the viability, T/C [4]?
Answer: 75.6%

Question: What about the viability, T/C [5] of the same compound?
Answer: 68.5%

Question: And the viability, T/C [6]?
Answer: 36.3%

Question: What about the viability, T/C [7] of the same compound?
Answer: 50.5%

Question: What about the viability, T/C [8] of the same compound?
Answer: 56.1%

Question: And the viability, T/C [9]?
Answer: 55.2%

Question: What about the viability, T/C [10] of the same compound?
Answer: 62.7%

Question: What about the viability, T/C [11] of the same compound?
Answer: 50.2%

Question: What about the viability, T/C [12] of the same compound?
Answer: 30.8%

Question: What about the viability, T/C [13] of the same compound?
Answer: 42.9%

Question: What about the viability, T/C [14] of the same compound?
Answer: 43.5%

Question: And the viability, T/C [15]?
Answer: 38.1%

Question: What about the viability, T/C [16] of the same compound?
Answer: 34.3%

Question: What about the viability, T/C [17] of the same compound?
Answer: 43.3%

Question: What about the viability, T/C [18] of the same compound?
Answer: 19.7%

Question: And the viability, T/C [19]?
Answer: 0.21%

Question: What about the viability, T/C [20] of the same compound?
Answer: 0.17%

Question: What about the viability, T/C [21] of the same compound?
Answer: 0.19%

Question: What about the viability, T/C [22] of the same compound?
Answer: 0.49%

Question: What about the viability, T/C [23] of the same compound?
Answer: 0.32%

Question: What about the viability, T/C [24] of the same compound?
Answer: 0.25%
